From US10392348B2, “2-oxo-3,4-dihydroquinoline compounds as plant growth regulators” (Syngenta Participations AG, priority 2015, dated 2019)
Like-named read-outs stand apart in the source and are kept apart here.

Columns and labels:
[1] = test system: corn plants (variety NK OCTET); assay: Reduced plant water use in corn (foliar spray, repeated weighing of pots); format: in vivo; conditions: Zea mays, corn plants sprayed at 500 μM, average of 6 pots
Experimental: Compounds were tested for their effect on reducing plant water use as follows. The compounds were applied by foliar spray to 12 day old corn plants (variety NK OCTET) grown in controlled environment plant growth chambers. All compounds were applied using an emulsifiable concentrate (EC) formulation that was diluted to the desired concentrations with water containing 0.4% of the adjuvant rape seed methyl ester. Plant water use during the day was assessed by repeated weighing of the pots in which the plants were grown before and after application of the compounds at the indicated times (expressed in days after application (DAA)). The water use data before application was used to correct any differences in water use arising due to non-treatment effects (e.g. due to differences in plant size). The untransformed water use values were subjected to an analysis of covariance, fitting the effect of treatment and using the baseline water use 1 day before application as a covariate. Application of the chemicals (0 DAA) takes place approximately between 08:00 and 09:30 a.m. WU is measured within day time (chamber light is on 06:00 to 20:00) at these timepoints: 0 DAA a.m. (10:30-12:50), 0 DAA p.m. (14:00-19:50), 1 DAA a.m. (07:30-12:50), 1 DAA p.m. (14:00-19:50), 2 DAA a.m. (07:30-12:50) and 2 DAA p.m. (14:00-19:50). The cumulative total WU (0-2.5 DAA) is calculated by summing the WU data mentioned above.

[2] = 0 h, water use during day time vs negative control, 0 DAA a.m. (10:30-12:50), read-out: % WU 0 DAA AM
[3] = 0 h, water use during day time vs negative control, 0 DAA p.m. (14:00-19:50), read-out: % WU 0DAA PM
[4] = 24 h, water use during day time vs negative control, 1 DAA a.m. (07:30-12:50), read-out: % WU 1DAA AM
[5] = 24 h, water use during day time vs negative control, 1 DAA p.m. (14:00-19:50), read-out: % WU 1DAA PM
[6] = 48 h, water use during day time vs negative control, 2 DAA a.m. (07:30-12:50), read-out: % WU 2 DAA AM
[7] = 48 h, water use during day time vs negative control, 2 DAA p.m. (14:00-19:50), read-out: % WU 2 DAA PM
[8] = 60 h, cumulative total water use 0-2.5 DAA (sum of the time points) vs negative control, read-out: % WU Total 0 to 2.5 DAA

SMILES	melting point [°C]	change in vivo at 500 µM [1, 2] [%]	change in vivo at 500 µM [1, 3] [%]	change in vivo at 500 µM [1, 4] [%]	change in vivo at 500 µM [1, 5] [%]	change in vivo at 500 µM [1, 6] [%]	change in vivo at 500 µM [1, 7] [%]	change in vivo at 500 µM [1, 8] [%]
CCN1C(=O)CCc2cc(CNS(=O)(=O)/C=C/c3cccc(Cl)c3)ccc21 [Compound 2.069, (E)-2-(3-chlorophenyl)-N-[(1-ethyl-2-oxo-3,4-dihydroquinolin-6-yl)methyl]ethenesulfonamide]	149 to 151	-6.5	-3.5	-3.3	-3.7	-2.1	-1.9	-3.2
CCN1C(=O)CCc2cc(CNS(=O)(=O)/C=C/c3cccc(Br)c3)ccc21 [Compound 2.070, (E)-2-(3-bromophenyl)-N-[(1-ethyl-2-oxo-3,4-dihydroquinolin-6-yl)methyl]ethenesulfonamide]	144 to 147	-8.1	-4.1	-6.1	-5.5	-4.8	-3.8	-5
CCCN1C(=O)CCc2cc(CNS(=O)(=O)c3ccc(Cl)cc3)ccc21 [Compound 3.004, 4-chloro-N-[(2-oxo-1-propyl-3,4-dihydroquinolin-6-yl)methyl]benzenesulfonamide]	138 to 139	-17.3	-12.5	-14.1	-12.9	-11.8	-10.7	-12.8

Continued, in another order:

melting point [°C]	SMILES	change in vivo at 500 µM [1, 2] [%]	change in vivo at 500 µM [1, 3] [%]	change in vivo at 500 µM [1, 4] [%]	change in vivo at 500 µM [1, 5] [%]	change in vivo at 500 µM [1, 6] [%]	change in vivo at 500 µM [1, 7] [%]	change in vivo at 500 µM [1, 8] [%]
157 to 159	CCCN1C(=O)CCc2cc(CNS(=O)(=O)c3ccccc3Br)ccc21 [Compound 3.017, 2-bromo-N-[(2-oxo-1-propyl-3,4-dihydroquinolin-6-yl)methyl]benzenesulfonamide]	-5.8	-3.1	-3.1	-2.5	-1.8	-2.1	-2.7
165 to 168	CCCN1C(=O)CCc2cc(CNS(=O)(=O)/C=C/c3ccccc3)ccc21 [Compound 3.051, (E)-N-[(2-oxo-1-propyl-3,4-dihydroquinolin-6-yl)methyl]-2-phenyl-ethenesulfonamide]	-11.2	-6.4	-8.1	-5.5	-5.4	-4.3	-6.2
150 to 152	CCCN1C(=O)CCc2cc(CNS(=O)(=O)/C=C/c3ccc(Br)cc3)ccc21 [Compound 3.052, (E)-2-(4-bromophenyl)-N-[(2-oxo-1-propyl-3,4-dihydroquinolin-6-yl)methyl]ethenesulfonamide]	-9.6	-4.6	-4.5	-4.5	-2.2	-2.5	-4.1
129 to 133	CCCN1C(=O)CCc2cc(CNS(=O)(=O)/C=C/c3cccc(Cl)c3)ccc21 [Compound 3.069, (E)-2-(3-chlorophenyl)-N-[(2-oxo-1-propyl-3,4-dihydroquinolin-6-yl)methyl]ethenesulfonamide]	-8.1	-4.1	-6.1	-5.5	-4.8	-3.8	-5
